# Positions count from the first letter of the chain named.
# What was measured:
# [1] = target: T1, H875Y-AR (Homo sapiens, UniProt P10275, H875Y); format: cell-based; settings: AR mutant H875Y; transfected PC3 cells; 0.1 nM R1881; drug 0 to 50 μM
# T1 sequence (P10275 1-920 H875Y): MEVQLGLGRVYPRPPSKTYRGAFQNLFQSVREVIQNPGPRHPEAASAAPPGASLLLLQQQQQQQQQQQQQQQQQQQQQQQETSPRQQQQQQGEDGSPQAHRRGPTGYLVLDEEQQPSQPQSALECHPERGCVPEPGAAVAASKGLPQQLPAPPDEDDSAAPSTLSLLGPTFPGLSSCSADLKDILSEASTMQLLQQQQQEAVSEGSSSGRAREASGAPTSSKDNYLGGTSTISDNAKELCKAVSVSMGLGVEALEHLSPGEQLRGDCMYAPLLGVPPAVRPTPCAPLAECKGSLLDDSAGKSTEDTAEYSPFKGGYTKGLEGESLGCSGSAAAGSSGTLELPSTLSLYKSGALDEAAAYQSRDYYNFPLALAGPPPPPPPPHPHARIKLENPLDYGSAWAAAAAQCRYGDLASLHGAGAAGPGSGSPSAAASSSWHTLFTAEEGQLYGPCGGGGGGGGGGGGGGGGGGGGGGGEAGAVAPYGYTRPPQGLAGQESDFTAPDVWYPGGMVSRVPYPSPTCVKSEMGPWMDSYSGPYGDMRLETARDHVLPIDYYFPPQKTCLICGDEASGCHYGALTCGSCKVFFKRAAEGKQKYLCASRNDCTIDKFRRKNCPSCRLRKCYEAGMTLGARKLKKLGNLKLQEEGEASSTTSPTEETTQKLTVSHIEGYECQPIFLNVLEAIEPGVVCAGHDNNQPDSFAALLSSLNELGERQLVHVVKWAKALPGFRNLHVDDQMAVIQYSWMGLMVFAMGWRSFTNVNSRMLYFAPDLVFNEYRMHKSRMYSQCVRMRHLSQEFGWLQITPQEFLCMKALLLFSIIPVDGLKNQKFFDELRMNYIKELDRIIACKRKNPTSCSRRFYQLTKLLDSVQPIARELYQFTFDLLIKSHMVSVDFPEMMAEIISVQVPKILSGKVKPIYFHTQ
# Source text: (§1) Full-length human AR (WT-AR) was encoded on a pcDNA3.1 expression plasmid (Life technologies). The LBD point mutations (single and multiple) were generated using the QuikChange II Site-Directed Mutagenesis Kit (Agilent Technologies) as per manufacturer’s instructions using WT-AR as the template. The mutagenic oligonucleotide primers were designed individually with the desired mutation in the middle of the primer with approximately 10 to 15 bases of correct sequence on both sides.
# (§2) PC3 cells were seeded and transfected as described above. […] A non-stimulated/no R1881 control was used. After 24 h, cells were lysed and AR-dependent luciferase activity was quantified. Each concentration was assayed in quadruplicate n = 4, with a biological replicate of n = 3. Results were averaged and normalized by expressing them as a percentage of WT AR activity.
# [2] = target: T2, H875Y/T878A-AR (Homo sapiens, UniProt P10275, H875Y/T878A); format: cell-based; settings: AR mutant H875Y/T878A; transfected PC3 cells; 0.1 nM R1881; drug 0 to 50 μM
# T2 sequence (P10275 1-920 H875Y/T878A): T1 sequence (P10275 1-920 H875Y) with T878A
# Source text: as §1, §2
compound,measurement,setting,value
"CC(C)(O)C(=O)Nc1ccc([N+](=O)[O-])c(C(F)(F)F)c1 [Hydroxyflutamide, hydroxyflutamide]",Agonist response to treatment,[1],Yes
same,Agonist response to treatment,[2],Yes
